Measured values taken from the NIST ThermoML archive (doi:10.1016/j.fluid.2005.05.018).
± gives the expanded uncertainty stated by the source.

Tests used:
[1] = 101.33 kPa, Liquid
[2] = refractive index (Na D-line) (dimensionless); conditions: 293.15 K; 101.33 kPa; Liquid; Standard Abbe refractometry

A mass density ([1]; 298.15 K) of 866.4 ± 0.5 kg/m3 and a refractive index [2] of 1.3751 ± 0.0007 were found for `CC(=O)OC(C)C` [1-methylethyl ethanoate] in this work.
A mass density ([1]; 298.15 K) of 969.2 ± 0.3 kg/m3 and a refractive index [2] of 1.383 ± 0.0007 were found for `CCOC(=O)OCC` [diethyl carbonate] in this work.
A mass density ([1]; 293.15 K) of 789.4 ± 0.6 kg/m3 and a refractive index [2] of 1.3592 ± 0.0007 were found for `CCO` [ethanol] in this work.
A mass density ([1]; 293.15 K) of 879 ± 0.5 kg/m3 and a refractive index [2] of 1.3899 ± 0.0007 were found for `CCCC(=O)OCC` [ethyl butanoate] in this work.
